Assay results reported in the kinase profiling compilation of Christmann-Franck et al. (2016).

Tests used:
Assay in all cases: KINOMEscan competition binding
Conditions in all cases: compound 10.0 µM
ULK1 (human) = ULK1 (human) (UniProt O75385)
STK3 (human) = STK3 (human) (UniProt Q13188)
PTK6 (human) = PTK6 (human) (UniProt Q13882)
SGK110 (human) = SGK110 (human) (UniProt P0C264)
IKBKE (human) = IKBKE (human) (UniProt Q14164)
[1] = tested on: FLT3 (human), P36888 [N841I]
MKNK1 (human) = MKNK1 (human) (UniProt Q9BUB5)
PAK4 (human) = PAK4 (human) (UniProt O96013)
[2] = target: JAK1 JH1 catalytic (human) (UniProt P23458)
[3] = tested on: FLT3 (human), P36888 [ITD]
MAP3K7 (human) = MAP3K7 (human) (UniProt O43318)
CSNK1G1 (human) = CSNK1G1 (human) (UniProt Q9HCP0)
EPHA5 (human) = EPHA5 (human) (UniProt P54756)
AXL (human) = AXL (human) (UniProt P30530)
WEE1 (human) = WEE1 (human) (UniProt P30291)
STK32B (human) = STK32B (human) (UniProt Q9NY57)
MAPK3 (human) = MAPK3 (human) (UniProt P27361)
ADCK4 (human) = ADCK4 (human) (UniProt Q96D53)
CDK18 (human) = CDK18 (human) (UniProt Q07002)
ITK (human) = ITK (human) (UniProt Q08881)
TEK (human) = TEK (human) (UniProt Q02763)
EPHA6 (human) = EPHA6 (human) (UniProt Q9UF33)
IRAK3 (human) = IRAK3 (human) (UniProt Q9Y616)
CDK8 (human) = CDK8 (human) (UniProt P49336)
MAP3K4 (human) = MAP3K4 (human) (UniProt Q9Y6R4)
ULK2 (human) = ULK2 (human) (UniProt Q8IYT8)
MAP2K6 (human) = MAP2K6 (human) (UniProt P52564)
NTRK3 (human) = NTRK3 (human) (UniProt Q16288)
CIT (human) = CIT (human) (UniProt O14578)
RIPK2 (human) = RIPK2 (human) (UniProt O43353)
CDC42BPA (human) = CDC42BPA (human) (UniProt Q5VT25)
WEE2 (human) = WEE2 (human) (UniProt P0C1S8)
MLTK (human) = MLTK (human) (UniProt Q9NYL2)
DCLK2 (human) = DCLK2 (human) (UniProt Q8N568)
BRSK2 (human) = BRSK2 (human) (UniProt Q8IWQ3)
TEC (human) = TEC (human) (UniProt P42680)
PDPK1 (human) = PDPK1 (human) (UniProt O15530)
AAK1 (human) = AAK1 (human) (UniProt Q2M2I8)
MARK2 (human) = MARK2 (human) (UniProt Q7KZI7)
DAPK2 (human) = DAPK2 (human) (UniProt Q9UIK4)

BRSK2 (human), sequence (Q8IWQ3 whole entry, looked up): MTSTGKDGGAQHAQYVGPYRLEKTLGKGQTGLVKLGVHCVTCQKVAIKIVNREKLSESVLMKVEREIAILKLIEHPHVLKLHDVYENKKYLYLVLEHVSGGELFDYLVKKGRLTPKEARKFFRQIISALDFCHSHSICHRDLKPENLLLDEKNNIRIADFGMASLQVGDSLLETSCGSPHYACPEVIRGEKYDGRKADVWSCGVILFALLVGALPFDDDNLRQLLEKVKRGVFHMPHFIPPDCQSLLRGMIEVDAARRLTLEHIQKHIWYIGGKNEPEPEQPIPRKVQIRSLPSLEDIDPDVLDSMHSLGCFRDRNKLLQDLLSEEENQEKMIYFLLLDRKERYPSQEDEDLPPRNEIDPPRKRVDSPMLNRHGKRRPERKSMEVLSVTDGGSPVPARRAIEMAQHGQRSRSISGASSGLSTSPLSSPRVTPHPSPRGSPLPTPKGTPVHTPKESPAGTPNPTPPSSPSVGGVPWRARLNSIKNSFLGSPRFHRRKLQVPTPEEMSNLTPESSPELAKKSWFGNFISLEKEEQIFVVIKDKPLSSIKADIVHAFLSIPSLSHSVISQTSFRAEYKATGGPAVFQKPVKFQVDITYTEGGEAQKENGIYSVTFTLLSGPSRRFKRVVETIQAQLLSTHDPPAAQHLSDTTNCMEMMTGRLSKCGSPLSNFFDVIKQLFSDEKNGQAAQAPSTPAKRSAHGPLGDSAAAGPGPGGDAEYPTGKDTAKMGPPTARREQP
WEE2 (human), sequence (P0C1S8 whole entry, looked up): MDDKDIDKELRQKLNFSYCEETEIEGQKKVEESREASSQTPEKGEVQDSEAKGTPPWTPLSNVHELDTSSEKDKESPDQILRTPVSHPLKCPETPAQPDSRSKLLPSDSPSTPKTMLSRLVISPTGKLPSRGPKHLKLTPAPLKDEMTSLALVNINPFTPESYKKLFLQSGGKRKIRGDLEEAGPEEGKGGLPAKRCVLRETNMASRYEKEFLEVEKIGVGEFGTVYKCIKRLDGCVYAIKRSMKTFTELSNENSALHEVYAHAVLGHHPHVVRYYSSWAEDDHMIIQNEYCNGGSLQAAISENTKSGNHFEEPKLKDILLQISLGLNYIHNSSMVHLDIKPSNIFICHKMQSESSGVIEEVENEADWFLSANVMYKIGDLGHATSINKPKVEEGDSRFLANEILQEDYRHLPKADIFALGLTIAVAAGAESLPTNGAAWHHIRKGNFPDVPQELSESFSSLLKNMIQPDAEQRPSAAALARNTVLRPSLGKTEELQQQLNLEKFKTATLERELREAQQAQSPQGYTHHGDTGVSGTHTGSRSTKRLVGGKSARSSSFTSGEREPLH
MARK2 (human), sequence (Q7KZI7 whole entry, looked up): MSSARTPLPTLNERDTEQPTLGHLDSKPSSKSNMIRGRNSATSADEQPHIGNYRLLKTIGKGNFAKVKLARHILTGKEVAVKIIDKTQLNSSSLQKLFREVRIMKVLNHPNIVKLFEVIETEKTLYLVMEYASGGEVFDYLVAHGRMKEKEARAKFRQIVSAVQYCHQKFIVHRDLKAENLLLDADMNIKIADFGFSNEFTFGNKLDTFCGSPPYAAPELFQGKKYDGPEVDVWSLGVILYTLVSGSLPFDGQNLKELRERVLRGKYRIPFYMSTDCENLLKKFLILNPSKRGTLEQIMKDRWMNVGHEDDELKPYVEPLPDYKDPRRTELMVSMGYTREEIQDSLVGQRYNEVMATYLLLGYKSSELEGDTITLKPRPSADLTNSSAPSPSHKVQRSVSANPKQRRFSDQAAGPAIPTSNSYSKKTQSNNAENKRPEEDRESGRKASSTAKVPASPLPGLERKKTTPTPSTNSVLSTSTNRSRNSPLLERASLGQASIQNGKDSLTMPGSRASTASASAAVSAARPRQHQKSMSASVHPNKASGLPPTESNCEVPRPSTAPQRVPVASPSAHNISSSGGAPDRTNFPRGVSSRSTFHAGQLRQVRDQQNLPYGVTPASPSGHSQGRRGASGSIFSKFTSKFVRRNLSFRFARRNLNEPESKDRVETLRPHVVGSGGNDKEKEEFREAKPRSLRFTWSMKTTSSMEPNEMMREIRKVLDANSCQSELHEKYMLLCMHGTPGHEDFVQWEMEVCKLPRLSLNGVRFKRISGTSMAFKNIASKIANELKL
EPHA6 (human), sequence (Q9UF33 whole entry, looked up): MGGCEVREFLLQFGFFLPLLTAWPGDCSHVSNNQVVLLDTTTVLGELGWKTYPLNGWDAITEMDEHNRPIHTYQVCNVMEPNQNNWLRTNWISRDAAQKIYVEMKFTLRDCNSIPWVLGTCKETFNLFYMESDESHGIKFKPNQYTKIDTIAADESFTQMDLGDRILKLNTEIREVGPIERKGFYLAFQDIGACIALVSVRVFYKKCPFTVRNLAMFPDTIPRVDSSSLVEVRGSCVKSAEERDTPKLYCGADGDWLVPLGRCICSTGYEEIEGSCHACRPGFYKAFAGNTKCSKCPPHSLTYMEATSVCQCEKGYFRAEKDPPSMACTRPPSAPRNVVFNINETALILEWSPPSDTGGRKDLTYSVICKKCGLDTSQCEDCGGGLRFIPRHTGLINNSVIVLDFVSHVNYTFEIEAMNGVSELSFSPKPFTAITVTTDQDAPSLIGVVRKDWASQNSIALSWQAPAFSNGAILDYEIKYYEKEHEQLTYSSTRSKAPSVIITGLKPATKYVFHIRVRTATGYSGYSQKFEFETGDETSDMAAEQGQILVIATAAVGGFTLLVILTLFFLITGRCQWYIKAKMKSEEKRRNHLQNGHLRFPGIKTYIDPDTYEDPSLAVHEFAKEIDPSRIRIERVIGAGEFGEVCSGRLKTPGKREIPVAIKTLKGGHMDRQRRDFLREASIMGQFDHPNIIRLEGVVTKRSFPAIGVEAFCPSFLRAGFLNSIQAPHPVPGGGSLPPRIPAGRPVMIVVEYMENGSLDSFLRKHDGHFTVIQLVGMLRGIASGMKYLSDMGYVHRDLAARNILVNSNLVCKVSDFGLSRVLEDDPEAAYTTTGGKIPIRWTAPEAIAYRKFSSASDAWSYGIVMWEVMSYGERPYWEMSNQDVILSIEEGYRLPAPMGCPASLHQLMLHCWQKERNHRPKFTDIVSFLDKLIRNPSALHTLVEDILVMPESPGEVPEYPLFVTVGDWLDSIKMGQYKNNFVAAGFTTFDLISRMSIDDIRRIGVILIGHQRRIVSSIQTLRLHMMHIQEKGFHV
MKNK1 (human), sequence (Q9BUB5 whole entry, looked up): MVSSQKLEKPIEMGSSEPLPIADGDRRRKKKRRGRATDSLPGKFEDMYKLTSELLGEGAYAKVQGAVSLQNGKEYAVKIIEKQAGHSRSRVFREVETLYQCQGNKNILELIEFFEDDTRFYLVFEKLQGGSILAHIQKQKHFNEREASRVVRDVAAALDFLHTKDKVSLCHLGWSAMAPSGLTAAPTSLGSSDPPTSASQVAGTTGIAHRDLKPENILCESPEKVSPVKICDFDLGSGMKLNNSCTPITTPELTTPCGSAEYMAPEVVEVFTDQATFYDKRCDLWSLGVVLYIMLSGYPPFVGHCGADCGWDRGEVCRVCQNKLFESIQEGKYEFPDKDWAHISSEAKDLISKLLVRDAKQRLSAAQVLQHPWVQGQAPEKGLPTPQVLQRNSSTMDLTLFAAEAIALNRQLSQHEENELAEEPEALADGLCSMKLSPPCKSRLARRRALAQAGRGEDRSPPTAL
MAP3K7 (human), sequence (O43318 whole entry, looked up): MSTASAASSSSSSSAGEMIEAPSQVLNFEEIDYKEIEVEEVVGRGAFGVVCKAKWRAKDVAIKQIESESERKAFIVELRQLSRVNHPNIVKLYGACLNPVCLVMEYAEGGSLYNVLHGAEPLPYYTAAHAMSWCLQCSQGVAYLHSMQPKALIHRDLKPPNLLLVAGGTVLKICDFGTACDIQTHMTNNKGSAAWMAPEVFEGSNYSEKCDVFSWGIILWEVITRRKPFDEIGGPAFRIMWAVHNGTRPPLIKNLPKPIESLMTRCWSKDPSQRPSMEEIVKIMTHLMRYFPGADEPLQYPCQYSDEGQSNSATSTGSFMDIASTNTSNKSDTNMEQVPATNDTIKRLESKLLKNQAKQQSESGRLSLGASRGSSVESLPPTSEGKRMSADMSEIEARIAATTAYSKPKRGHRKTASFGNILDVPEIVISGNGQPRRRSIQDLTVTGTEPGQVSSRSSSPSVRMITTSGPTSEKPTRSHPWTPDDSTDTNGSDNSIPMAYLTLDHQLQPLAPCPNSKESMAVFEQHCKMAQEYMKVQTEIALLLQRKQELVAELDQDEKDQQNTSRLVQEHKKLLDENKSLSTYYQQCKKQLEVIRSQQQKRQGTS
SGK110 (human), sequence (P0C264 whole entry, looked up): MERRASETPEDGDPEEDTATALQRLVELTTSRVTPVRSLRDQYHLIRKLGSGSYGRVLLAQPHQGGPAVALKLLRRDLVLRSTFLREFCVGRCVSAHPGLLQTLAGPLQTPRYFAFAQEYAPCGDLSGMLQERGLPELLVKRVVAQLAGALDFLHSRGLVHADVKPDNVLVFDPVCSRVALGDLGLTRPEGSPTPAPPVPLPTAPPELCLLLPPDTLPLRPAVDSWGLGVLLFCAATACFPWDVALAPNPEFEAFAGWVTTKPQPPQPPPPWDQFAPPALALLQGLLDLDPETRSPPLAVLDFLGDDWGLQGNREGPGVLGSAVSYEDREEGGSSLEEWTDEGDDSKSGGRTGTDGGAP
CDK18 (human), sequence (Q07002 whole entry, looked up): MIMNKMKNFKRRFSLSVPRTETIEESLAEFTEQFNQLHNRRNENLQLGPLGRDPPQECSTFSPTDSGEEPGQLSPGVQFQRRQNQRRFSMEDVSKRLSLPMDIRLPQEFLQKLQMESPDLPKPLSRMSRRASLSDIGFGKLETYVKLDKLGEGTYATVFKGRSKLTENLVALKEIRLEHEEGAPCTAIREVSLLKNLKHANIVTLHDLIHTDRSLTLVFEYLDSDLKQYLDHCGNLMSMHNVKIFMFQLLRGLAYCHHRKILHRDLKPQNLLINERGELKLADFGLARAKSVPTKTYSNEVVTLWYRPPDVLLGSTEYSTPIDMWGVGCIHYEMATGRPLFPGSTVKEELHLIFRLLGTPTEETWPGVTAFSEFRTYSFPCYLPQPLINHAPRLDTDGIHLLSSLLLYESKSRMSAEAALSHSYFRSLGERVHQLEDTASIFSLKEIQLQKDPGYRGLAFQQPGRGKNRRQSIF

CCC(=O)N1CCN(c2ccc(-n3c(=O)ccc4cnc5ccc(-c6cnc7ccccc7c6)cc5c43)cc2C(F)(F)F)CC1
kinase still bound, per cent of control (ULK1 (human)): 100%
kinase still bound, per cent of control (STK3 (human)): 24%
kinase still bound, per cent of control (PTK6 (human)): 51%
kinase still bound, per cent of control (SGK110 (human)): 94%
kinase still bound, per cent of control (IKBKE (human)): 87%
kinase still bound, per cent of control [1]: 8.8%
kinase still bound, per cent of control (MKNK1 (human)): 44%
kinase still bound, per cent of control (PAK4 (human)): 100%
kinase still bound, per cent of control [2]: 82%
kinase still bound, per cent of control [3]: 29%
kinase still bound, per cent of control (MAP3K7 (human)): 47%
kinase still bound, per cent of control (CSNK1G1 (human)): 100%
kinase still bound, per cent of control (EPHA5 (human)): 100%
kinase still bound, per cent of control (AXL (human)): 46%
kinase still bound, per cent of control (WEE1 (human)): 42%
kinase still bound, per cent of control (STK32B (human)): 87%
kinase still bound, per cent of control (MAPK3 (human)): 91%
kinase still bound, per cent of control (ADCK4 (human)): 15%
kinase still bound, per cent of control (CDK18 (human)): 97%
kinase still bound, per cent of control (ITK (human)): 100%
kinase still bound, per cent of control (TEK (human)): 19%
kinase still bound, per cent of control (EPHA6 (human)): 75%
kinase still bound, per cent of control (IRAK3 (human)): 27%
kinase still bound, per cent of control (CDK8 (human)): 4.6%
kinase still bound, per cent of control (MAP3K4 (human)): 47%
kinase still bound, per cent of control (ULK2 (human)): 75%
kinase still bound, per cent of control (MAP2K6 (human)): 100%
kinase still bound, per cent of control (NTRK3 (human)): 100%
kinase still bound, per cent of control (CIT (human)): 59%
kinase still bound, per cent of control (RIPK2 (human)): 44%
kinase still bound, per cent of control (CDC42BPA (human)): 0.65%
kinase still bound, per cent of control (WEE2 (human)): 100%
kinase still bound, per cent of control (MLTK (human)): 22%
kinase still bound, per cent of control (DCLK2 (human)): 100%
kinase still bound, per cent of control (BRSK2 (human)): 76%
kinase still bound, per cent of control (TEC (human)): 99%
kinase still bound, per cent of control (PDPK1 (human)): 100%
kinase still bound, per cent of control (AAK1 (human)): 75%

O=C(O)c1ccc(Nc2ncc3c(n2)-c2ccc(Cl)cc2C(c2c(F)cccc2F)=NC3)cc1
kinase still bound, per cent of control (ULK1 (human)): 40%
kinase still bound, per cent of control (MARK2 (human)): 93%
kinase still bound, per cent of control (STK3 (human)): 48%
kinase still bound, per cent of control (PTK6 (human)): 77%
kinase still bound, per cent of control (DAPK2 (human)): 41%
kinase still bound, per cent of control (SGK110 (human)): 58%
kinase still bound, per cent of control (IKBKE (human)): 68%
kinase still bound, per cent of control (MKNK1 (human)): 100%
kinase still bound, per cent of control (PAK4 (human)): 90%
kinase still bound, per cent of control [2]: 90%
kinase still bound, per cent of control [3]: 87%
kinase still bound, per cent of control (MAP3K7 (human)): 80%
kinase still bound, per cent of control (CSNK1G1 (human)): 37%
kinase still bound, per cent of control (EPHA5 (human)): 1.5%
kinase still bound, per cent of control (AXL (human)): 4.4%
kinase still bound, per cent of control (WEE1 (human)): 100%
kinase still bound, per cent of control (STK32B (human)): 38%
kinase still bound, per cent of control (ADCK4 (human)): 95%
kinase still bound, per cent of control (CDK18 (human)): 100%
kinase still bound, per cent of control (TEK (human)): 3%
kinase still bound, per cent of control (EPHA6 (human)): 14%
kinase still bound, per cent of control (IRAK3 (human)): 15%
kinase still bound, per cent of control (CDK8 (human)): 100%
kinase still bound, per cent of control (MAP3K4 (human)): 36%
kinase still bound, per cent of control (ULK2 (human)): 100%
kinase still bound, per cent of control (MAP2K6 (human)): 72%
kinase still bound, per cent of control (NTRK3 (human)): 65%
kinase still bound, per cent of control (CIT (human)): 37%
kinase still bound, per cent of control (RIPK2 (human)): 97%
kinase still bound, per cent of control (CDC42BPA (human)): 84%
kinase still bound, per cent of control (WEE2 (human)): 89%
kinase still bound, per cent of control (MLTK (human)): 93%
kinase still bound, per cent of control (DCLK2 (human)): 94%
kinase still bound, per cent of control (BRSK2 (human)): 100%
kinase still bound, per cent of control (TEC (human)): 2%
kinase still bound, per cent of control (PDPK1 (human)): 35%
kinase still bound, per cent of control (AAK1 (human)): 90%

O=C(NOC[C@H](O)CO)c1ccc(F)c(F)c1Nc1ccc(I)cc1F
kinase still bound, per cent of control (ULK1 (human)): 100%
kinase still bound, per cent of control (MARK2 (human)): 100%
kinase still bound, per cent of control (STK3 (human)): 90%
kinase still bound, per cent of control (PTK6 (human)): 46%
kinase still bound, per cent of control (DAPK2 (human)): 100%
kinase still bound, per cent of control (SGK110 (human)): 100%
kinase still bound, per cent of control (IKBKE (human)): 100%
kinase still bound, per cent of control [1]: 78%
kinase still bound, per cent of control (MKNK1 (human)): 100%
kinase still bound, per cent of control (PAK4 (human)): 100%
kinase still bound, per cent of control [2]: 78%
kinase still bound, per cent of control [3]: 100%
kinase still bound, per cent of control (MAP3K7 (human)): 75%
kinase still bound, per cent of control (CSNK1G1 (human)): 61%
kinase still bound, per cent of control (EPHA5 (human)): 96%
kinase still bound, per cent of control (AXL (human)): 83%
kinase still bound, per cent of control (WEE1 (human)): 67%
kinase still bound, per cent of control (MAPK3 (human)): 86%
kinase still bound, per cent of control (ADCK4 (human)): 100%
kinase still bound, per cent of control (CDK18 (human)): 100%
kinase still bound, per cent of control (ITK (human)): 97%
kinase still bound, per cent of control (TEK (human)): 100%
kinase still bound, per cent of control (EPHA6 (human)): 94%
kinase still bound, per cent of control (IRAK3 (human)): 100%
kinase still bound, per cent of control (CDK8 (human)): 100%
kinase still bound, per cent of control (MAP3K4 (human)): 100%
kinase still bound, per cent of control (ULK2 (human)): 97%
kinase still bound, per cent of control (MAP2K6 (human)): 100%
kinase still bound, per cent of control (NTRK3 (human)): 93%
kinase still bound, per cent of control (CIT (human)): 100%
kinase still bound, per cent of control (RIPK2 (human)): 66%
kinase still bound, per cent of control (CDC42BPA (human)): 100%
kinase still bound, per cent of control (WEE2 (human)): 77%
kinase still bound, per cent of control (MLTK (human)): 88%
kinase still bound, per cent of control (DCLK2 (human)): 100%
kinase still bound, per cent of control (BRSK2 (human)): 100%
kinase still bound, per cent of control (TEC (human)): 100%
kinase still bound, per cent of control (PDPK1 (human)): 71%
kinase still bound, per cent of control (AAK1 (human)): 100%

N#Cc1c(NC(=O)c2cccc3ccccc23)sc2c1CCCC2
kinase still bound, per cent of control (ULK1 (human)): 100%
kinase still bound, per cent of control (MARK2 (human)): 100%
kinase still bound, per cent of control (STK3 (human)): 91%
kinase still bound, per cent of control (PTK6 (human)): 46%
kinase still bound, per cent of control (DAPK2 (human)): 91%
kinase still bound, per cent of control (SGK110 (human)): 91%
kinase still bound, per cent of control (IKBKE (human)): 100%
kinase still bound, per cent of control [1]: 86%
kinase still bound, per cent of control (MKNK1 (human)): 100%
kinase still bound, per cent of control (PAK4 (human)): 100%
kinase still bound, per cent of control [2]: 78%
kinase still bound, per cent of control [3]: 97%
kinase still bound, per cent of control (MAP3K7 (human)): 82%
kinase still bound, per cent of control (CSNK1G1 (human)): 50%
kinase still bound, per cent of control (EPHA5 (human)): 89%
kinase still bound, per cent of control (AXL (human)): 88%
kinase still bound, per cent of control (WEE1 (human)): 64%
kinase still bound, per cent of control (STK32B (human)): 83%
kinase still bound, per cent of control (MAPK3 (human)): 74%
kinase still bound, per cent of control (ADCK4 (human)): 100%
kinase still bound, per cent of control (CDK18 (human)): 95%
kinase still bound, per cent of control (ITK (human)): 89%
kinase still bound, per cent of control (EPHA6 (human)): 94%
kinase still bound, per cent of control (IRAK3 (human)): 100%
kinase still bound, per cent of control (CDK8 (human)): 100%
kinase still bound, per cent of control (MAP3K4 (human)): 86%
kinase still bound, per cent of control (ULK2 (human)): 98%
kinase still bound, per cent of control (MAP2K6 (human)): 100%
kinase still bound, per cent of control (NTRK3 (human)): 86%
kinase still bound, per cent of control (CIT (human)): 100%
kinase still bound, per cent of control (RIPK2 (human)): 58%
kinase still bound, per cent of control (CDC42BPA (human)): 100%
kinase still bound, per cent of control (WEE2 (human)): 70%
kinase still bound, per cent of control (MLTK (human)): 87%
kinase still bound, per cent of control (DCLK2 (human)): 100%
kinase still bound, per cent of control (BRSK2 (human)): 100%
kinase still bound, per cent of control (TEC (human)): 91%
kinase still bound, per cent of control (PDPK1 (human)): 81%
kinase still bound, per cent of control (AAK1 (human)): 91%
